Tests used:
Format in all cases: in vivo
[1] = test system: Taxol induced mechanical allodynia in the rat hind paw; assay: Taxol-Induced Peripheral Neuropathy (von Frey paw withdrawal threshold); conditions: 100 mg/kg, p.o. daily for 12 days with Taxol 2 mg/kg i.p.; day 12; not statistically different from baseline (16.42±2.14 g)
Source text: Peripheral neuropatheis are chronic conditions that arise when nerves are damaged by trauma, disease, metabolic insufficiency or by certain drugs and toxins. The sensory disturbances associated with chemotherapeutic agents, such as paclitaxel (Taxol), range from mild tingling to spontaneous burning, typically in the hands and feet. Symptoms become more intense with continued therapy and can lead to weakness, ataxia, numbness and pain. Taxol-induced peripheral neuropathy in rats have therefore been used as a model of peripheral neuropathies in humans.
Male Sprague-Dawley rats (Harlan) were randomly assigned to two treatment groups: vehicle (0.5% hypromellose, p.o.) and Compound #1 (100 mg/kg, p.o). All rats were injected with Taxol (2 mg/kg, i.p.) on days 1, 3, 5 and 7. At the same time, rats received daily oral gavage of vehicle or Compound #1, starting the day of the first Taxol injection and continuing for 12 days.
All animals were acclimated to the allodynia procedure 2-3 days prior to testing allowing the rats to habituate to the testing devices. Rats underwent Von Frey hair testing as a measure of mechanical allodynia at baseline and on days 5 and 12 post-Taxol injection. Tactile sensitivity was measured using calibrated filaments touched to the plantar surfaces of the affected limb. […]

[2] = test system: formalin-induced inflammatory-mediated pain response (hind-paw licking); assay: Mouse Formalin Assay; conditions: i.p.; for acute response, decrease from control: acute phase
Protocol: The mouse formalin test is an acute and chronic model for testing the ability of a test compound for the treatment of pain.
In the Mouse Formalin Test, 0.5% formalin was injected s.c. into the plantar region of the hind-paw of adult male mice to induce an inflammatory-mediated pain response. Pain was expressed as licking of the injected area in a bi-modal manner—acute and chronic phase. The acute phase occurred immediately and lasted approximately 10-15 min post-injection, representing direct stimulation of pain fibers. Licking behavior resumes approximately 10 mins later (˜20 min post injection) and lasted 10-15 min, representing the chronic phase due to centralized sensitization in dorsal horn neurons and hypothesized to be caused by the release of inflammatory mediators such as cytokines.
Activity in the acute phase of the formalin test is an indicator of acute pain believed to correlate with peripheral pain pathways.

[3] = test system: mechanical (tactile) allodynia after L5 nerve ligation; assay: Rat Chung Model of Neuropathic Pain (L5 nerve ligation, von Frey mechanical allodynia)
Protocol: The rat Chung model is an assay used in determining whether a compound is useful for the treatment of neuropathic pain (Kim and Chung, 1994; Chaplan et al., 1994).
In this study, male Sprague Dawley rats (145-165 g; Harlan) were anesthetized and the L5 nerve was isolated and ligated with silk suture material resulting in mechanical allodynia. Two weeks post-ligation, rats were dosed acutely with vehicle (an aqueous solution of 0.5% methylcellulose) or Compound #1 at 15, 30, 60, 120 or 240 mg/kg, p.o. Mechanical (tactile) allodynia was quantified by recording the pressure at which the affected paw withdrew from a graded stimulus (von Frey hairs) at 30 min, 1, 2 and 4 h post-dosing. Data were normalized and results are presented as % MPE (maximum […] effect) of the drug.

[4] = 107 mg/kg, 15 min prior to formalin injection, p<0.01

**Q.** Which withdrawal force [1] does the source give for NS(=O)(=O)NCc1csc2ccccc12 [Compound #1, N-(benzo[b]thien-3-ylmethyl)-sulfamide] here?
**A.** The withdrawal force was 14.32 ± 5.45 g.

**Q.** And the “acute response, decrease from control” value ([2]; 53 mg/kg, p<0.05)?
**A.** The value was 32%.

**Q.** What about the “chronic phase response, decrease from control” value ([2]; 53 mg/kg, p<0.01) of the same compound?
**A.** The value was 67%.

**Q.** What about the “acute response, decrease from control” value [2, 4] of the same compound?
**A.** The value was 52%.

**Q.** What about the “chronic phase response, decrease from control” value [2, 4] of the same compound?
**A.** The value was 88%.

**Q.** And the “improvement in the allodynic response (% MPE)” value ([3]; 240 mg/kg, p.o., at 1 h post-dosing)?
**A.** The value was 80%.

**Q.** And the ED50 ([3]; Rattus norvegicus, po, at 1 h post-dosing, n=5 rats/dose, read-out: acute oral ED50)?
**A.** The ED50 was 169 mg/kg.

**Q.** And the “time of peak efficacy post-dosing” value ([3]; p.o., efficacy observed at 30 min, gone by 4 h)?
**A.** Its value is 1 h.

Reference: patent US20070191452A1, “USE OF BENZO-HETEROARYL SULFAMIDE DERIVATIVES FOR THE TREATMENT OF PAIN” (priority 2006, published 2007)
